Test results published in patent US20170233414A1, “DERIVATIVES OF BODIPY” (OREGON HEALTH & SCIENCE UNIVERSITY, priority 2016, published 2017).

Assay: Fluorescence properties and quantum yield measurements of the BAA library
Type: physicochemical
Design: FWHM (full-width-at half max): unit not given here
Details: not given
Method: General Instruments. Synthesized sample purification was performed with an Agilent 1260 Infinity HPLC utilizing a C18 column (150mm×21.2 mm). MS (HRMS, ESI) spectra data was collected with an Agilent 6244 TOF LC/MS with diode array detector VL+ and C18 column (4.6 mm×50 mm). Absorbance and fluorescence data were measured on a SpectraMax M5 Microplate reader. NMR spectra, ^1H and ^13C, were recorded on a Bruker ARK400 spectrometer. BAA microscopy screening in cells for organelle specificity and signal-to-background ratio was completed with an Axio Zeiss Light Microscope and 63× oil immersion objective.
Fluorescence Properties and Quantum Yield Measurements. Spectroscopic characterizations were performed in anhydrous DMSO in polystyrene 96 well plate. Analysis included the maximum absorbance wavelength, maximum fluorescence emission wavelength, full-width-at half max, and quantum yield. Quantum yields (φfl) were determined by comparing the area under the emission spectrum of the BAA compound to a reference fluorophore solution at three concentrations using equation 1, where Grad represents the gradient from the plots of integrated fluorescence intensity vs absorbance at three concentrations and q is the refractive index of the solvent. Fluorescein in 0.1 M NaOH (φfl=0.91)^3 was the reference for samples with a max absorbance up to 510 nm, where an excitation of 470 nm was used with the emission integrated between 490 to 800 nm. Rhodamine B in ethanol (φfl=0.70) was the reference for samples with a max absorbance between 511-595 nm, where an excitation of 525 nm was used with the emission integrated between 545 to 800 nm. Cresyl violet in methanol (φfl=0.54)^4 was the reference for samples with a max absorbance above 595 nm, where an excitation of 570 nm was used with the emission integrated between 590 to 800 nm.

SMILES | FWHM (full-width-at half max) | Stokes Shift [nm] | λmax ABS [nm] | λmax EM [nm] | φfl (quantum yield)
CC1=CC(/C=C/c2ccc(-c3ccccc3)cc2)=[N+]2C1=Cc1ccc(CCC(=O)O)n1[B-]2(F)F [BAA-17a] | 42 | 12 | 579 | 591 | 0.59

Same assay, conditions: anhydrous DMSO

SMILES | Stokes Shift [nm]
C=CCc1cc(/C=C/C2=[N+]3C(=Cc4ccc(CCC(=O)O)n4[B-]3(F)F)C(C)=C2)ccc1OC [BAA-15a] | 16
CC1=CC(/C=C/c2cc(C)c(C)cc2C)=[N+]2C1=Cc1ccc(CCC(=O)O)n1[B-]2(F)F [BAA-16a] | 58
CC1=CC(/C=C/c2ccc(OCc3ccccc3)cc2)=[N+]2C1=Cc1ccc(CCC(=O)O)n1[B-]2(F)F [BAA-18a] | 16
CC1=CC(/C=C/c2ccc(-c3cccs3)cc2)=[N+]2C1=Cc1ccc(CCC(=O)O)n1[B-]2(F)F [BAA-19a] | 13
CCSc1ncc(/C=C/C2=[N+]3C(=Cc4ccc(CCC(=O)O)n4[B-]3(F)F)C(C)=C2)cn1 [BAA-20a] | 8
COc1cc(OCc2ccccc2)ccc1/C=C/C1=[N+]2C(=Cc3ccc(CCC(=O)O)n3[B-]2(F)F)C(C)=C1 [BAA-21a] | 26
COc1cc(OCc2ccccc2)ccc1/C=C(/CC(=O)O)c1ccc2n1[B-](F)(F)[N+]1=C(/C=C/c3ccc(OCc4ccccc4)cc3OC)C=C(C)C1=C2 [BAA-21b] | 20
COc1cc(/C=C/C2=[N+]3C(=Cc4ccc(CCC(=O)O)n4[B-]3(F)F)C(C)=C2)ccc1OCc1ccc(F)cc1 [BAA-22a] | 17
COc1cc(/C=C(/CC(=O)O)c2ccc3n2[B-](F)(F)[N+]2=C(/C=C/c4ccc(OCc5ccc(F)cc5)c(OC)c4)C=C(C)C2=C3)ccc1OCc1ccc(F)cc1 [BAA-22b] | 19
CC1=CC(/C=C/c2ccc(-c3ccc(C(F)(F)F)cn3)cc2)=[N+]2C1=Cc1ccc(CCC(=O)O)n1[B-]2(F)F [BAA-23a] | 11
CC1=CC(/C=C/c2ccc(-c3ccc(C(F)(F)F)cn3)cc2)=[N+]2C1=Cc1ccc(/C(=C\c3ccc(-c4ccc(C(F)(F)F)cn4)cc3)CC(=O)O)n1[B-]2(F)F [BAA-23b] | 8
CC1=CC(/C=C/c2cccc(I)c2)=[N+]2C1=Cc1ccc(/C(=C\c3cccc(I)c3)CC(=O)O)n1[B-]2(F)F [BAA-24b] | 9
CC1=CC(/C=C/c2ccc(Oc3ccc(Cl)cc3)cc2)=[N+]2C1=Cc1ccc(/C(=C\c3ccc(Oc4ccc(Cl)cc4)cc3)CC(=O)O)n1[B-]2(F)F [BAA-27b] | 13

Same assay, conditions: anhydrous DMSO, polystyrene 96 well plate

SMILES | λmax ABS [nm] | λmax EM [nm]
C=CCc1cc(/C=C/C2=[N+]3C(=Cc4ccc(CCC(=O)O)n4[B-]3(F)F)C(C)=C2)ccc1OC [BAA-15a] | 581 | 597
CC1=CC(/C=C/c2cc(C)c(C)cc2C)=[N+]2C1=Cc1ccc(CCC(=O)O)n1[B-]2(F)F [BAA-16a] | 552 | 610
CC1=CC(/C=C/c2ccc(OCc3ccccc3)cc2)=[N+]2C1=Cc1ccc(CCC(=O)O)n1[B-]2(F)F [BAA-18a] | 577 | 593
CC1=CC(/C=C/c2ccc(-c3cccs3)cc2)=[N+]2C1=Cc1ccc(CCC(=O)O)n1[B-]2(F)F [BAA-19a] | 582 | 595
CCSc1ncc(/C=C/C2=[N+]3C(=Cc4ccc(CCC(=O)O)n4[B-]3(F)F)C(C)=C2)cn1 [BAA-20a] | 577 | 585
COc1cc(OCc2ccccc2)ccc1/C=C/C1=[N+]2C(=Cc3ccc(CCC(=O)O)n3[B-]2(F)F)C(C)=C1 [BAA-21a] | 585 | 611
COc1cc(OCc2ccccc2)ccc1/C=C(/CC(=O)O)c1ccc2n1[B-](F)(F)[N+]1=C(/C=C/c3ccc(OCc4ccccc4)cc3OC)C=C(C)C1=C2 [BAA-21b] | 588 | 608
COc1cc(/C=C/C2=[N+]3C(=Cc4ccc(CCC(=O)O)n4[B-]3(F)F)C(C)=C2)ccc1OCc1ccc(F)cc1 [BAA-22a] | 585 | 602
COc1cc(/C=C(/CC(=O)O)c2ccc3n2[B-](F)(F)[N+]2=C(/C=C/c4ccc(OCc5ccc(F)cc5)c(OC)c4)C=C(C)C2=C3)ccc1OCc1ccc(F)cc1 [BAA-22b] | 582 | 601
CC1=CC(/C=C/c2ccc(-c3ccc(C(F)(F)F)cn3)cc2)=[N+]2C1=Cc1ccc(CCC(=O)O)n1[B-]2(F)F [BAA-23a] | 592 | 603
CC1=CC(/C=C/c2ccc(-c3ccc(C(F)(F)F)cn3)cc2)=[N+]2C1=Cc1ccc(/C(=C\c3ccc(-c4ccc(C(F)(F)F)cn4)cc3)CC(=O)O)n1[B-]2(F)F [BAA-23b] | 580 | 588
CC1=CC(/C=C/c2cccc(I)c2)=[N+]2C1=Cc1ccc(/C(=C\c3cccc(I)c3)CC(=O)O)n1[B-]2(F)F [BAA-24b] | 570 | 579
CC1=CC(/C=C/c2ccc(Oc3ccc(Cl)cc3)cc2)=[N+]2C1=Cc1ccc(/C(=C\c3ccc(Oc4ccc(Cl)cc4)cc3)CC(=O)O)n1[B-]2(F)F [BAA-27b] | 575 | 588

Same assay, conditions: anhydrous DMSO; emission

SMILES | FWHM (full-width-at half max)
C=CCc1cc(/C=C/C2=[N+]3C(=Cc4ccc(CCC(=O)O)n4[B-]3(F)F)C(C)=C2)ccc1OC [BAA-15a] | 39
CC1=CC(/C=C/c2cc(C)c(C)cc2C)=[N+]2C1=Cc1ccc(CCC(=O)O)n1[B-]2(F)F [BAA-16a] | 78
CC1=CC(/C=C/c2ccc(OCc3ccccc3)cc2)=[N+]2C1=Cc1ccc(CCC(=O)O)n1[B-]2(F)F [BAA-18a] | 37
CC1=CC(/C=C/c2ccc(-c3cccs3)cc2)=[N+]2C1=Cc1ccc(CCC(=O)O)n1[B-]2(F)F [BAA-19a] | 35
CCSc1ncc(/C=C/C2=[N+]3C(=Cc4ccc(CCC(=O)O)n4[B-]3(F)F)C(C)=C2)cn1 [BAA-20a] | 31
COc1cc(OCc2ccccc2)ccc1/C=C/C1=[N+]2C(=Cc3ccc(CCC(=O)O)n3[B-]2(F)F)C(C)=C1 [BAA-21a] | 46
COc1cc(OCc2ccccc2)ccc1/C=C(/CC(=O)O)c1ccc2n1[B-](F)(F)[N+]1=C(/C=C/c3ccc(OCc4ccccc4)cc3OC)C=C(C)C1=C2 [BAA-21b] | 50
COc1cc(/C=C/C2=[N+]3C(=Cc4ccc(CCC(=O)O)n4[B-]3(F)F)C(C)=C2)ccc1OCc1ccc(F)cc1 [BAA-22a] | 49
COc1cc(/C=C(/CC(=O)O)c2ccc3n2[B-](F)(F)[N+]2=C(/C=C/c4ccc(OCc5ccc(F)cc5)c(OC)c4)C=C(C)C2=C3)ccc1OCc1ccc(F)cc1 [BAA-22b] | 46
CC1=CC(/C=C/c2ccc(-c3ccc(C(F)(F)F)cn3)cc2)=[N+]2C1=Cc1ccc(CCC(=O)O)n1[B-]2(F)F [BAA-23a] | 30
CC1=CC(/C=C/c2ccc(-c3ccc(C(F)(F)F)cn3)cc2)=[N+]2C1=Cc1ccc(/C(=C\c3ccc(-c4ccc(C(F)(F)F)cn4)cc3)CC(=O)O)n1[B-]2(F)F [BAA-23b] | 32
CC1=CC(/C=C/c2cccc(I)c2)=[N+]2C1=Cc1ccc(/C(=C\c3cccc(I)c3)CC(=O)O)n1[B-]2(F)F [BAA-24b] | 32
CC1=CC(/C=C/c2ccc(Oc3ccc(Cl)cc3)cc2)=[N+]2C1=Cc1ccc(/C(=C\c3ccc(Oc4ccc(Cl)cc4)cc3)CC(=O)O)n1[B-]2(F)F [BAA-27b] | 35

Same assay, conditions: anhydrous DMSO; relative to reference fluorophore at three concentrations

SMILES | φfl (quantum yield)
C=CCc1cc(/C=C/C2=[N+]3C(=Cc4ccc(CCC(=O)O)n4[B-]3(F)F)C(C)=C2)ccc1OC [BAA-15a] | 0.42
CC1=CC(/C=C/c2cc(C)c(C)cc2C)=[N+]2C1=Cc1ccc(CCC(=O)O)n1[B-]2(F)F [BAA-16a] | 0.22
CC1=CC(/C=C/c2ccc(OCc3ccccc3)cc2)=[N+]2C1=Cc1ccc(CCC(=O)O)n1[B-]2(F)F [BAA-18a] | 0.65
CC1=CC(/C=C/c2ccc(-c3cccs3)cc2)=[N+]2C1=Cc1ccc(CCC(=O)O)n1[B-]2(F)F [BAA-19a] | 0.64
CCSc1ncc(/C=C/C2=[N+]3C(=Cc4ccc(CCC(=O)O)n4[B-]3(F)F)C(C)=C2)cn1 [BAA-20a] | 0.15
COc1cc(OCc2ccccc2)ccc1/C=C/C1=[N+]2C(=Cc3ccc(CCC(=O)O)n3[B-]2(F)F)C(C)=C1 [BAA-21a] | 0.51
COc1cc(OCc2ccccc2)ccc1/C=C(/CC(=O)O)c1ccc2n1[B-](F)(F)[N+]1=C(/C=C/c3ccc(OCc4ccccc4)cc3OC)C=C(C)C1=C2 [BAA-21b] | 0.54
COc1cc(/C=C/C2=[N+]3C(=Cc4ccc(CCC(=O)O)n4[B-]3(F)F)C(C)=C2)ccc1OCc1ccc(F)cc1 [BAA-22a] | 0.39
COc1cc(/C=C(/CC(=O)O)c2ccc3n2[B-](F)(F)[N+]2=C(/C=C/c4ccc(OCc5ccc(F)cc5)c(OC)c4)C=C(C)C2=C3)ccc1OCc1ccc(F)cc1 [BAA-22b] | 0.27
CC1=CC(/C=C/c2ccc(-c3ccc(C(F)(F)F)cn3)cc2)=[N+]2C1=Cc1ccc(CCC(=O)O)n1[B-]2(F)F [BAA-23a] | 0.23
CC1=CC(/C=C/c2ccc(-c3ccc(C(F)(F)F)cn3)cc2)=[N+]2C1=Cc1ccc(/C(=C\c3ccc(-c4ccc(C(F)(F)F)cn4)cc3)CC(=O)O)n1[B-]2(F)F [BAA-23b] | 0.19
CC1=CC(/C=C/c2cccc(I)c2)=[N+]2C1=Cc1ccc(/C(=C\c3cccc(I)c3)CC(=O)O)n1[B-]2(F)F [BAA-24b] | 0.29
CC1=CC(/C=C/c2ccc(Oc3ccc(Cl)cc3)cc2)=[N+]2C1=Cc1ccc(/C(=C\c3ccc(Oc4ccc(Cl)cc4)cc3)CC(=O)O)n1[B-]2(F)F [BAA-27b] | 0.33
